Laboratory results from PMC7361110 (Antiviral Research, 2020).
pIC50: −log10 of the molar value. Read-outs that look alike come from different tables or passages of the source.

Test system: SARS-CoV-2
Format: cell-based, SARS-CoV-2 (BetaCoV/France/IDF0571/2020 strain)
Settings: for antiviral activity against SARS-CoV-2 (in words): single drug

Structure (SMILES)	pIC50	antiviral activity against SARS-CoV-2 (in words)	reduction of remdesivir IC50 (in presence of 12.5 μM berberine versus remdesivir alone)	reduction of remdesivir IC50 (in presence of diltiazem (11.5 μM) versus remdesivir alone)
CCOC(=O)c1c(CSc2ccccc2)n(C)c2cc(Br)c(O)c(CN(C)C)c12 [Arbidol (umifenovir)]	5.45	–	–	–
COc1ccc([C@@H]2Sc3ccccc3N(CCN(C)C)C(=O)[C@@H]2OC(C)=O)cc1 [Diltiazem]	–	neither diltiazem nor ribavirin or favipiravir showed antiviral activity	–	–
COc1ccc2cc3[n+](cc2c1OC)CCc1cc2c(cc1-3)OCO2 [Berberine]	4.98	dose-dependent antiviral responses	–	–
NC(=O)c1nc(F)c[nH]c1=O [Favipiravir, 6-fluoro-3-hydroxy-2-pyrazinecarboxamine]	–	neither diltiazem nor ribavirin or favipiravir showed antiviral activity	–	–
Cc1cccc(C)c1OCC(=O)N[C@@H](Cc1ccccc1)[C@@H](O)C[C@H](Cc1ccccc1)NC(=O)[C@H](C(C)C)N1CCCNC1=O [Lopinavir]	5.28	–	–	–
CCC(CC)COC(=O)[C@H](C)N[P@](=O)(OC[C@H]1O[C@@](C#N)(c2ccc3c(N)ncnn23)[C@H](O)[C@@H]1O)Oc1ccccc1 [Remdesivir]	6.01	–	> 2 fold	up to 8.5 fold
NC(=O)c1ncn([C@@H]2O[C@H](CO)[C@@H](O)[C@H]2O)n1 [Ribavirin, 1-β-D-ribofuranosyl-1,2,4-triazole-3-carboxamide]	–	neither diltiazem nor ribavirin or favipiravir showed antiviral activity	–	–
